Results taken from US12006503B2, “Fusion proteins and methods thereof” (The Trustees of Columbia University in the City of New York, priority 2012, dated 2024).
Entries after “also recorded” stand apart in the source; their conditions may differ. Blank lines part the entries; values can stand above or below the compound they belong to.

Assays:
[1] = system: intracranial luciferase-expressing FGFR3-TACC3-driven glioma xenografts; test: Orthotopic (intracranial) FGFR3-TACC3-driven glioma xenografts, drug treatment, survival; type: in vivo, mouse; conditions: 50 mg/kg, oral, 20 days
Text: Mice were monitored daily and sacrificed when neurological symptoms appeared.

[2] = system: all members of the FGFR family; conditions: cited from earlier work
[3] = system: recurrent GBM harboring FGFR3-TACC3 fusions; test: Phase I trial of JNJ-42756493 in patients with recurrent GBM harboring FGFR3-TACC3 (MRI, RANO, volumetry)
Text: (A) Post-gadolinium T1 weighted images show the target lesion on the right parietal lobe. […] (B) Analysis of sum of product diameters (SPD) before and during the anti-FGFR treatment (RANO criteria). (C) Analysis of tumor volume (cm3) before and during the anti-FGFR treatment. […] (D) Perfusion images at baseline and after 20 days of anti-FGFR treatment. rCBV (relative cerebral blood volume). Post-gadolinium T1 weighted images with color overlay of rCBV are shown. […] (F) Analysis of sum of product diameters (SPD) before and during the anti-FGFR treatment.
MRI imaging and evaluation of clinical response to JNJ-42756493. Baseline and follow-up imaging assessments were performed on 1.5 Tesla MR imaging systems, including at least axial T1 weighted images before gadolinium injection, Axial or 3D FLAIR (Fluid-Attenuated Inversion-Recovery), dynamic susceptibility contrast MR perfusion (0.1 mmol/kg of gadobutrol), axial and 3D T1 weighted images after gadolinium injection. Tumor response was assessed according to the RANO criteria (33). Contrast-enhancing lesion volume was assessed with the help of a semi-automated volumetry tool (SegmentiX), based on shape-detection and thresholding, with control and manual correction of edges when necessary. Since exclusion of cystic or necrotic portions of the lesion may be affected by operator subjectivity, both were included for volumetric and axial measurements.
DSC (dynamic susceptibility contrast) perfusion datasets were processed with vendor's software suite (Neuroperfusion, Philips), including coregistration and rCBV (relative cerebral blood volume) parametric maps generation with 3 different algorithms (Gamma-variate fitting, Arterial Input Function based deconvolution and Model Free).

[4] = system: nonclinical models with FGFR aberrations; conditions: squamous NSCLC, gastric, breast, HCC, endometrial, bladder; cited from earlier work
activated FGFR = conditions: cited from earlier work
[5] = system: mouse astrocytes expressing FGFR3-TACC3; conditions: mouse astrocytes expressing FGFR3-TACC3, 72 hours, MTT
Procedure: (§1) Cell culture and cell growth assay. GIC-1123 gliomaspheres were cultured in neurobasal medium (Invitrogen) supplemented with B27, N2 (Invitrogen), EGF and FGF2 (20 ng/ml, PeproTech). Mouse astrocytes Ink4A-Arf−/− were cultured in DMEM supplemented with 10% Fetal Bovine Serum. Cells were seeded at 1,000 cells/well in a 96-well plate and treated with JNJ-42756493. After 72 hours cell viability was assessed using the 3-(4,5-dimethythiazol-2-yl)-2,5-diphenyl tetrazolium bromide (MTT) assay. Data are mean±SEM of six replicates. Experiments were performed three times.

[6] = system: human glioma stem cells GIC-1123; conditions: GIC-1123, 72 hours, MTT
Procedure: as §1

[7] = system: mouse astrocytes expressing FGFR3-TACC3-KD or the empty vector; conditions: cells expressing KD mutant fusion or empty vector
Procedure: as §1

[8] = system: GIC-1123 tumor xenografts; test: Subcutaneous GIC-1123 xenografts treated with JNJ-42756493; conditions: 12 mg/kg, oral
Procedure: After tumor establishment (arrow) mice were treated with vehicle or JNJ-42756493 (12 mg/kg) for 14 days. Values are mean tumor volumes±SD, (n=9 mice per group). P-value of the slope calculated from the treatment starting point (arrow) is 0.04.
Subcutaneous xenografts and drug treatment. GIC-1123 cells (5×10^5) were injected subcutaneously in the flank of athymic nude (Nu/Nu) mice (Charles River Laboratories). Mice carrying ˜200 mm 3 subcutaneous tumors were randomized to receive 12 mg/kg JNJ-42756493 or DMSO in 1% Tween 80 by oral gavage. Tumor diameters were measured with caliper and tumor volumes estimated using the formula: 0.5×length×width 2. Data are mean±SD of nine mice in each group. Mice were sacrificed when tumors in the control group reached the maximal size allowed by the IACUC Committee at Columbia University.

FGFR3-TACC3 = target: T1, FGFR3-TACC3 (Homo sapiens, UniProt P22607); test: Western blot of constitutive phosphorylation of FGFR3-TACC3 and FRS2 in Ink4A;Arf-/- astrocytes; type: cell-based, mouse; conditions: 100 nM PD173074, Ink4A;Arf-/- astrocytes
T1 construct: a protein of 1,048 amino acids resulting from the fusion of a FGFR3 amino-terminal portion of residues 1-758; expressed in transfected cells; host or cells: Ink4A;Arf-/- mouse astrocytes, lentiviral transduction (pLOC-GFP / pTomo vectors)
Procedure: Ink4A; Arf−/− astrocytes transduced with empty lentivirus or a lentivirus expressing FGFR3-TACC3 or FGFR3-TACC3-K508M were left untreated (0) or treated with 100 nM of the FGFR inhibitor PD173074 for the indicated times. Phospho-proteins and total proteins were analyzed by Western blot using the indicated antibodies.

Rat1A cells = test: Karyotype analysis (chromosome counts, aneuploidy) of Rat1A cells; type: cell-based, rat; conditions: five days
Procedure: Distribution of chromosome counts of cells arrested in mitosis and analyzed for karyotypes using DAPI. Chromosomes were counted in 100 metaphase cells for each condition to determine the ploidy and the diversity of chromosome counts within the cell population. FGFR3-TACC3 fusion induces aneuploidy.
The upper panel is a karyotype analysis of Rat1A cells transduced with control or FGFR3-TACC3 lentivirus and treated with vehicle (DMSO) or PD173470 (100 nM) for five days.
(§2) Karyotype analysis. Cultured cells were colcemid (20 ng/ml) treated for 90 minutes before harvesting for karyotopic analysis as detailed in Extended Experimental procedures. At least one hundred cells in metaphase were examined for chromosome count. PMSCS was scored in cells where a majority of the sister chromosomes were no longer associated. Two-tailed unpaired t-tests with Welch's correction were performed for comparison of means analysis.
Karyotypic Analysis. The colcemid treated cells were trypsinized, centrifuged for 7 minutes at 200×g, and the cell pellet re-suspended in warmed hypotonic solution and incubated at 37° C. for 13 minutes. The swollen cells were then centrifuged and the pellet re-suspended in 8 ml of Carnoy's fixative (3:1 methanol:glacial acetic acid). […] Slides were stained with DAPI and metaphases were analyzed under a fluorescent microscope.

[9] = system: glioma xenografts of FGFR3-TACC3 transformed astrocytes; test: Subcutaneous glioma xenografts of FGFR3-TACC3 transformed astrocytes, drug treatment; type: in vivo, mouse; conditions: 50 mg/kg, oral gavage
Procedure: (§3) Subcutaneous xenografts and drug treatment. […] For experiments with FGFR inhibitors, mice carrying ˜200-300 mm 3 subcutaneous tumors derived from Ink4A; Arf−/− astrocytes were randomized to receive 50 mg/kg PD173074 in 0.05 M lactate buffer (pH 5) or an equal volume of lactate buffer by oral gavage. Treatment was administered for three cycles consisting of four consecutive days followed by two days of rest. […] Data are expressed as mean±SE.

[10] = system: Rat1A cells and Ink4A;Arf-/- astrocytes; test: Premature sister chromatid separation (PMSCS) in metaphase spreads; type: cell-based; conditions: cells expressing FGFR3-TACC3
Text: Correction of premature sister chromatid separation (PMSCS) by PD173470 in cells expressing FGFR3-TACC3. Panels show representative metaphase spreads. DNA was stained by DAPI.
Left, panels show representative metaphase spreads. Right, quantitative analysis of metaphases with loss of sister chromatid cohesion. The number of mitosis with PMSCS in Ink4A; Arf−/− astrocytes was scored in at least 100 methaphases for each condition in three independent experiments. The number of mitosis with PMSCS was scored in triplicate samples of Rat1A cells. FIG. 13D is a graph showing nocodazole was added for the indicated durations to Rat1A-H2B-GFP cells transduced with the specified lentiviruses. The mitotic index at each time point was determined by quantitating the H2B-GFP-positive cells in mitosis at each time point. Data are presented as average and standard deviation (n=3).
as §2

Rat1 = test: Soft agar colony assay, Rat1 cells; type: cell-based, rat; conditions: Rat1 cells transduced with the construct
Text: FGFR1-TACC1 and FGFR3-TACC3 induce anchorage-independent growth in Rat1A fibroblasts. The number of soft agar colonies was scored from triplicate samples 14 days after plating. Representative microphotographs are shown.

[11] = system: Rat1A cells and Ink4A;Arf-/- astrocytes; test: Quantitative analysis of chromosome segregation defects in mitoses; type: cell-based
Text: Quantitative analysis of metaphase spreads for chromosome segregation defects in Ink4A; ARF−/− astrocytes expressing vector control or FGFR3-TACC3 (upper panel). Microscope imaging analysis of chromosome segregation defects in Ink4A; Arf−/− astrocytes expressing FGFR3-TACC3 or vector control. Representative images of cells with chromosome missegregation. Arrows point to chromosome misalignments, lagging chromosomes and chromosome bridges.
Confocal microscopy imaging. For immunofluorescence of fixed cells, images were recorded with a Z-optical spacing of 0.25 μm using a Nikon AIR MP and a 60×1.3 oil objective and analyzed using ImageJ software (National Institute of Health). For live-cell analyses, Rat1A cells infected with pLNCX-H2B retrovirus and transduced with lentiviral vector or FGFR3-TACC3 fusion were seeded in glass bottom dishes in phenol red free DMEM and followed by time-lapse microscopy using the Nikon AIR MP biostation at 37° C. and 5% CO2/95% air. Images with a Z-optical spacing of 1 μm were recorded every 4 min for 8 h. Images of unchallenged mitosis from early prophase until cytokinesis were processed using ImageJ software (National Institute of Health). The time-point of nuclear envelope breakdown (NEB) was defined as the first frame showing loss of smooth appearance of chromatin and anaphase was the first frame when chromosome movement towards the poles became apparent. […]

[12] = system: Ink4A;Arf-/- astrocytes in immunodeficient mice; test: Subcutaneous tumor xenograft formation by lentivirus-transduced Ink4A;Arf-/- astrocytes; type: in vivo, mouse
Text: FIG. 3B are photomicrographs showing of immunofluoresence staining of tumors from mice injected with Ink4A; Arf−/− astrocytes expressing FGFR3-TACC3 showing positivity for glioma-specific (Nestin, Oig2 and GFAP) and proliferation markers (Ki67 and pHH3). Sub-cutaneous tumors were generated by Ink4A; Arf−/− astrocytes expressing FGFR-TACC fusions.
as §3

[13] = system: Rat1A cells expressing FGFR3-TACC3 fusion; test: Growth of Rat1A cells expressing FGFR3-TACC3 after FGFR3 shRNA lentivirus (trypan blue exclusion); type: cell-based, rat; conditions: lentiviral shRNA
Procedure: At the left, parallel cultures of GSC-1123 cells were transduced in triplicate. Rat1A cells expressing FGFR3-TACC3 fusion were transduced with lentivirus expressing a non-targeting shRNA (Ctr) or shRNA sequences targeting FGFR3 (sh2, sh3, sh4). Five days after infection cells were plated at density of 2λ10^4 cells/well in triplicate and the number of trypan blue excluding cells was scored at the indicated times. […] Values are the means±standard deviation (n=3). At the right sided figure, GSC-1123 cells were transduced with lentivirus expressing a non-targeting shRNA (sh-Ctr) or lentivirus expressing sh-3 and sh-4 sequences targeting FGFR3. Western Blot analysis was performed on parallel cultures using the FGFR3 antibody to the detect FGFT3-TACC3 fusion protein. β-actin is shown as a control for loading.
Cloning and Lentiviral production. Lentiviral expression vectors, pLOC-GFP (Open Biosystems) and pTomo-shp53, were used to clone FGFR3, TACC3, FGFR3-TACC3, FGFR3-TACC3-K508M, and FGFR1-TACC1. pTomo-shp53 was a gift of Inder Verma and Dinorah Friedman-Morvinski (Salk Institute, San Diego). The FGFR3-TACC3-K508M mutant was generated using the Phusion Site Direct Mutagenesis kit (NEB, USA). MISSION shRNAs clones (pLK0.1 lentiviral expression vectors) against FGFR3 were purchased from Sigma. The hairpin sequences targeting the FGFR3 gene are—

Compound: COc1cc(CCc2cc(NC(=O)c3ccc(N4C[C@@H](C)N[C@@H](C)C4)cc3)n[nH]2)cc(OC)c1 [AZD4547]
survival of mice with intracranial FGFR3-TACC3 glioma [1]: markedly prolonged survival

IC50 [6]: 1.55 nM
Compound: COc1cc(OC)cc(N(CCNC(C)C)c2ccc3ncc(-c4cnn(C)c4)nc3c2)c1 [JNJ-42756493]
IC50 values for all members of the FGFR family [2]: low nanomolar range
change of the enhancing parenchyma of the tumor mass ([3]; Patient 1): −44%
duration of stabilization ([3]; Patient 1): 115 days
toxicity observed during treatment ([3]; Patient 1): grade I hyperphosphatemia, asthenia, dysgueusia, dry mouth, keratitis, and grade II nail changes
tumor response on MRI (RANO sum of product diameters, volumetry) ([3]; Patient 1, 12 mg/day, 7 days on/7 days off): stabilization of the tumor; also recorded: stable disease; also recorded: disease stabilization
extent of tumor vascularity (rCBV) ([3]; Patient 1, MR perfusion): marked reduction
clinical status ([3]; Patient 1, after 3 weeks): marked clinical improvement
time to best response ([3]; Patient 2): 104 days
time to disease progression after start of anti-FGFR ([3]; Patient 2): 134 days
toxicity observed during treatment ([3]; Patient 2): Grade I hyperphosphatemia, nail changes, and mucositis
tumor response category ([3]; Patient 2): minor response
clinical status ([3]; Patient 2, after 4 weeks): clinical improvement
reduction of tumor size according to the RANO criteria ([3]; Patient 2, best response): 22%
tumor reduction according to volumetry ([3]; Patient 2, best response): 28%
antitumor activities in nonclinical models with FGFR aberrations [4]: potent antitumor activities
concentration inhibiting tyrosine phosphorylation of activated FGFR (activated FGFR): nanomolar concentrations
IC50 [5]: 3.03 nM
sensitivity to FGFR inhibition [7]: but not cells expressing the KD mutant fusion or the empty vector
growth of GIC-1123 tumor xenografts [8]: potent growth inhibition
tumor regression of GIC-1123 xenografts ([8]; after two weeks): statistically significant tumor regression

constitutive phosphorylation of the TK domain of FGFR3-TACC3 and of FRS2 (FGFR3-TACC3): abolished
Compound: CCN(CC)CCCCNc1ncc2cc(-c3cc(OC)cc(OC)c3)c(NC(=O)NC(C)(C)C)nc2n1 [PD173074]
distribution of chromosome counts (Rat1A cells; Rat1A expressing FGFR3-TACC3, 100 nM): restored the narrow distribution of chromosome counts
rescue of the aneuploidy caused by FGFR3-TACC3 (Rat1A cells; Rat1A, 100 nM): over 80%
tumor growth of FGFR3-TACC3 glioma subcutaneous xenografts [9]: potent growth inhibition
cohesion defect (premature sister chromatid separation) [10]: largely corrected
cohesion defect (premature sister chromatid separation) ([10]; listed as PD173470): Correction

Compound: FGFR1-TACC1: fusion protein in which the TK domain of FGFR1 is fused upstream of the TACC domain of TACC1 (SEQ ID NO: 150)
soft agar colonies (Rat1): 225.3 ± 10.0
increase of chromosomal segregation errors versus control cells [11]: three to five fold increase
mice with tumors after subcutaneous injection of astrocytes expressing the fusion protein ([12]; Ink4A;Arf-/- astrocytes, immunodeficient mice): 100%
Subcutaneous tumor xenografts (tumors formed/injections) ([12]; Ink4Arf-/- astrocytes expressing the construct): 8/8

Compound: sh-3: MISSION shRNA hairpin targeting the FGFR3 gene, SEQ ID NO: 183 (guide GTTCCACTGCAAGGTGTACAG; the letters are possibly those of the target site)
growth of cells ectopically expressing FGFR3-TACC3 after FGFR3 silencing [13]: reverted the growth rate

Compound: sh-4: MISSION shRNA hairpin targeting the FGFR3 gene, SEQ ID NO: 184 (guide GCACAACCTCGACTACTACAA; the letters are possibly those of the target site)
growth of cells ectopically expressing FGFR3-TACC3 after FGFR3 silencing [13]: reverted the growth rate
